In patent US9879006B2, “Azaindole acetic acid derivatives and their use as prostaglandin D2 receptor modulators” (IDORSIA PHARMACEUTICALS LTD, priority 2014, dated 2018):

How the values were obtained:
[1] = tested on: primary cultured rat hepatocytes; assay: In vitro cytotoxicity in primary cultured rat hepatocytes; format: cell-based; details: 24 h treatment, cell morphology and LDH leakage, highest test concentration 300 μM; for LCC (lowest cytotoxic concentration): 300s = only slight cytotoxicity at 300 μM
Excerpt: In Vitro Cytotoxicity in Primary Cultured Rat Hepatocytes
Adult male Wistar rats were narcotized with sodium pentobarbital and hepatocytes were isolated according to a standard procedure, i.e. by in situ perfusion of the liver with a collagenase solution. The viability of the purified hepatocytes, checked by the trypan blue dye exclusion method was greater than 85%. The isolated hepatocytes were resuspended in standard Williams Medium E, without phenol red, supplemented (WME supp.) with transferrin (100 μg/ml), triiodothyronine (10 μg/ml), gentamicin (50 μg/ml), hydrocortison hemisuccinate (13.36 μg/ml), glucagon (5 μg/ml), HEPES (10 mM), inosin (10 μg/ml), insulin (10 μg/ml), streptomycin (100 μg/ml) and penicillin (100 U/ml) and 10% fetal bovine serum (FBS). The cells were plated in collagen-coated 24-well plates at an initial density of 2×10^5 cells/well. After 4 h for attachment to the culture-plates, the medium was aspirated and replaced by fresh WME supp. without FBS containing the test compounds and incubated for 24 h at 37° C. in a […] and 5% CO2 atmosphere. For each experiment, i.e., with each batch of hepatocytes, treatments with the test compounds were done in quadriplicate. Quadriplicate controls (treatment with the vehicle only) were also present on each culture plate.
Stock solutions of the test compounds were prepared in DMSO a few hours before treatment start. Appropriate dilutions of these stock solutions were added to the culture media just prior to the treatment in order to give final concentrations of 0, 3, 10, 30, 100 and 300 μM. The final concentration of the vehicle DMSO was 1% (v/v).
The morphology of the hepatocyte monolayers was monitored by light microscopy after 24 hours of exposure to the test compounds. Treatment related effects are described according to the following grading: • 0 No morphological alterations observed upon treatment when compared to the control cultures • 1-3 Treatment resulting in any morphological changes, e.g. intracellular granulation, vacuolization or cell death. Depending on the severity, these changes were regarded as slight (1), moderate (2) or strong (3). • K Treatment resulting in 100% dead cells and/or the complete detachment of the monolayer yielding a clear cell-free dish.
After 24 h treatment of the hepatocyte cultures, aliquots of culture medium were carefully collected and used for the analysis of lactate dehydrogenase (LDH) activity by spectrophotometry using the LDH cytotoxicity detection kit from Clontech (cat No. 630117, Mountain View, Calif., USA). For each experiment, additional cultures were used for the determination of total intracellular LDH activity at treatment start. For this purpose, 4 wells of cell culture per experiment were washed with cold saline before treatment start, sonicated in fresh medium and the homogenate was analyzed for total LDH activity. Enzyme activities in the culture media were assessed and expressed as percentage of the total activity present in the cultured hepatocytes at the beginning of the treatments.
The lowest cytotoxic concentration (LCC) and the no effect concentration (NoEC) are given for each compound, based on cell morphology and LDH leakage after 24 h treatment. LCC is defined as the lowest concentration of the test compound leading to a clear effect on the cultured rat hepatocytes (morphology grading≧2 or ≧2-fold increase in LDH leakage). A LCC value of >300 μM indicates the absence of effect on both endpoints at the highest test concentration of 300 μM. […] NoEC is defined as the highest test concentration of the compound which was without an effect on the cultured rat hepatocytes (morphology and LDH leakage).

[2] = target: T1, hCRTH2 receptor (Homo sapiens, UniProt Q9Y5Y4); assay: hCRTH2 receptor membranes radioligand displacement assay; details: displacement of 3H-PGD2 (2.5 nM), HEK293-hCRTH2 membrane fragments, Binding-Buffer with 0.1% BSA
T1 construct: expressed in transfected cells; host or cells: HEK293 (recombinant HEK293-hCRTH2), membrane fragments
T1 sequence (Q9Y5Y4 1-395): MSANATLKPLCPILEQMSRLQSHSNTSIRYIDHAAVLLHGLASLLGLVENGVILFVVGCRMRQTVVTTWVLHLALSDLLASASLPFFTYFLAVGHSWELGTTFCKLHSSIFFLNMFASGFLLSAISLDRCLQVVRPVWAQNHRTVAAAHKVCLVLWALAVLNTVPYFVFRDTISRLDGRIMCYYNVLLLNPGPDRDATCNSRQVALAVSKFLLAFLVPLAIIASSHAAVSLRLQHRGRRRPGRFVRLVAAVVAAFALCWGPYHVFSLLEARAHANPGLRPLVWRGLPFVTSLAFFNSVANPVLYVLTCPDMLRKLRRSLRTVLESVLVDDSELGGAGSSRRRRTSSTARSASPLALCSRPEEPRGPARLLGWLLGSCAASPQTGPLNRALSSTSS
Experimental: Preparation of hCRTH2 Receptor Membranes and Radioligand Displacement Assay:
(§1) First, recombinant HEK293-hCRTH2 cells were detached from culture plates into 5 ml buffer A/plate (Buffer A: 5 mM Tris, 1 mM MgCl2-6H2O pH=7.4) using a rubber policeman. Cells were then transferred into centrifugation tubes and centrifuged for 5 min at 400 g. The cell pellet was resuspended in the same buffer and tubes were frozen at 80° C. Cells were thawed and membrane fragments were generated by homogenization using a polytron homogenizer (30 seconds). The membrane fragments were then centrifuged at 3000 g for 20 minutes and resuspended in buffer C (Buffer C: 75 mM Tris, 25 mM MgCl2, 250 mM Saccharose pH 7.4). Aliquots of membrane fragments were stored at −20° C.
(§2) Binding assay was performed in a final assay volume of 250 μl. First, 25 μl of test compound, previously diluted in Binding-Buffer (Binding-Buffer: 50 mM Tris-Base, 100 mM NaCl, 1 mM EDTA, 0.1% BSA (protease free), 0.01% NaN3, 10 mM MnCl2 pH 7.0) was placed into each well. After addition of 75 μl Binding-Buffer, 50 μl of the radioligand ^3H-PGD2 (at 2.5 nM (220.000 dpm/well) from ANAWA ART0662) was added to each well. Binding assay was started by addition of 100 μl CRTH2 membrane fragments, reaching a final concentration of 20 μg/well. For non-specific binding, PGD2 was added to the reaction mixture to […] final concentration. This assay mix was incubated for 90 minutes at room temperature and then filtered through a GF/C filter 96-well plate which was pre-soaked for 3 hours in 0.5% polyethyleneimine (PEI). The filter-wells were washed three times with ice cold Binding-Buffer. Then, 40 μl of Microscint-40 (Packard) was added to each well and the retained radioactivity quantified in a Topcount (Packard).

[3] = target: T1, hCRTH2 receptor; assay: Radioligand displacement assay in presence of human serum albumin (HSA); details: displacement of 3H-PGD2, Binding-Buffer with 0.5% human serum albumin instead of 0.1% BSA
Experimental: as §1, §2
Radioligand Displacement Assay-Human Serum Albumin (HSA):
Radioligand displacement assay in presence of human serum albumin (HSA) was performed as described above, with following modifications. Binding-Buffer-HSA: Binding-buffer+0.5% Sigma Albumin from Human serum A1887 (instead of 0.1% BSA). A volume of 25 μl test compound, previously diluted in Binding-Buffer-HSA was placed into each well. After addition of 75 μl Binding-Buffer-HSA, 50 μl of ^3H-PGD2 (at 2.5 nM (220.000 dpm/well) from ANAWA ART0662) was added to each well. Remaining protocol was identical as described above.

[4] = tested on: eosinophils (PGD2-induced shape change); assay: Eosinophil shape change assay with human plasma; format: cell-based; details: human polymorphonuclear cells, 50% human plasma, activated with PGD2 100 nM, flow cytometry forward-scatter
Experimental: Eosinophil Shape Change Assay with Human Plasma
After obtaining informed consent, blood samples were drawn by venipuncture according to the protocol approved by the ethics committee of Basel, Switzerland. Polymorphonuclear leukocytes (containing eosinophils, basophils and neutrophils) were isolated using the Polymorphprep™ method (Axis-Shield). In brief, anticoagulated whole blood was layered onto a Polymorphprep gradient (density 1.113 g/ml) and centrifuged at 500 g for 30 min. The polymorphonuclear cell fraction was harvested and depleted for erythrocytes by hypotonic saline lysis.
The polymorphonuclear cells were resuspended in assay buffer (1×PBS with Ca^2+/Mg^2+ supplemented with 0.1% BSA, 10 mM HEPES, and 10 mM Glucose, pH 7.4) at 5×10^6 cells/ml and stained with anti-CD49d-APC ((APC=Allophycocyanin) for 1 hour at RT. Test compounds, at various concentrations, were preincubated 10 min in human plasma (anticoagulated with a thrombin inhibitor). Then, human plasma was added to the polymorphonuclear cells to 50% of final assay volume with polymorphonuclear cells at 4×10^6 cells/ml. After incubation for 10 minutes at 37° C., the polymorphonuclear cells were activated for 5 min at 37° C. by addition of PGD2 at 100 nM final concentration. Activation was stopped by addition of 0.5 ml paraformaldehyde (1%).
Immediately after fixation with paraformaldehyde, the samples were analyzed by FACSCanto flow cytometer (BD Biosciences) and target cells were identified by their forward-scatter (FSC) and side-scatter (SSC) characteristics. Eosinophils were identified by the anti-CD49d-APC signal and their characteristic side-scatter (SSC) profile. Shape change responses, indicative of eosinophil activation, were quantified as the percent of cells with an increased forward-scatter.

| SMILES | NoEC (no effect concentration) [1] [µM] | LCC (lowest cytotoxic concentration) [1] | IC50 [2] [nM] | IC50 [3] [nM] | IC50 [4] [nM] |
| --- | --- | --- | --- | --- | --- |
| CN(c1ncc(Cl)cn1)[C@H]1CCc2c(c3cc(F)ccc3n2CC(=O)O)C1 | 30 | 300 µM |  |  |  |
| Cc1ccc2c(n1)c1c(n2CC(=O)O)CCC(N(C)c2ncc(Cl)cn2)C1 (stereo not drawn) [Example 1, 2-(8-((5-chloropyrimidin-2-yl)(methyl)amino)-2-methyl-6,7,8,9-tetrahydro-5H-pyrido[3,2-b]indol-5-yl)acetic acid] |  |  | 1.9 | 3.9 | 71 |
| CN(c1ncc(Cl)cn1)C1CCc2c(c3nc(F)ccc3n2CC(=O)O)C1 (stereo not drawn) [Example 2, 2-(8-((5-chloropyrimidin-2-yl)(methyl)amino)-2-fluoro-6,7,8,9-tetrahydro-5H-pyrido[3,2-b]indol-5-yl)acetic acid] |  |  | 3.1 | 2.3 | 4.2 |
| COc1ccc2c(n1)c1c(n2CC(=O)O)CCC(N(C)c2ncc(Cl)cn2)C1 (stereo not drawn) [Example 3, 2-(8-((5-chloropyrimidin-2-yl)(methyl)amino)-2-methoxy-6,7,8,9-tetrahydro-5H-pyrido[3,2-b]indol-5-yl)acetic acid] |  |  | 13 | 13 | 148 |
| CN(c1ncc(Cl)cn1)C1CCc2c(c3nc(C(F)(F)F)ccc3n2CC(=O)O)C1 (stereo not drawn) [Example 4, 2-(8-((5-chloropyrimidin-2-yl)(methyl)amino)-2-(trifluoromethyl)-6,7,8,9-tetrahydro-5H-pyrido[3,2-b]indol-5-yl)acetic acid] |  |  | 10 | 16 | 417 |
| O=C(O)Cn1c2c(c3ncccc31)CC(Nc1ncc(Cl)cn1)CC2 (stereo not drawn) [Example 5, 2-(8-((5-chloropyrimidin-2-yl)-amino)-6,7,8,9-tetrahydro-5H-pyrido[3,2-b]indol-5-yl)acetic acid] |  |  | 19 | 22 | 88 |
| CN(c1ncc(Cl)cn1)[C@H]1CCc2c(c3ncccc3n2CC(=O)O)C1 [Example 6, (S)-2-(8-((5-chloropyrimidin-2-yl)(methyl)amino)-6,7,8,9-tetrahydro-5H-pyrido[3,2-b]indol-5-yl)acetic acid] |  |  | 2.3 | 2.1 | 5.8 |
| CN(c1ncc(Cl)cn1)[C@H]1CCc2c(c3nc(F)ccc3n2CC(=O)O)C1 [Example 7, (S)-2-(8-((5-chloropyrimidin-2-yl)(methyl)amino)-2-fluoro-6,7,8,9-tetrahydro-5H-pyrido[3,2-b]indol-5-yl)acetic acid] |  |  | 5.6 | 5 | 3.1 |
| Cc1ccc2c(n1)c1c(n2CC(=O)O)CCC(N(C)c2ncc(Cl)cn2)C1 (stereo not drawn) [drawing 27] | >300 | >300 µM |  |  |  |
| CN(c1ncc(Cl)cn1)C1CCc2c(c3nc(F)ccc3n2CC(=O)O)C1 (stereo not drawn) [drawing 28] | >300 | >300 µM |  |  |  |
| COc1ccc2c(n1)c1c(n2CC(=O)O)CCC(N(C)c2ncc(Cl)cn2)C1 (stereo not drawn) [drawing 29] | 100 | 300 s |  |  |  |
| CN(c1ncc(Cl)cn1)C1CCc2c(c3nc(C(F)(F)F)ccc3n2CC(=O)O)C1 (stereo not drawn) [drawing 30] | 100 | 300 s |  |  |  |
| CN(c1ncc(Cl)cn1)[C@H]1CCc2c(c3ncccc3n2CC(=O)O)C1 [drawing 31] | >300 | >300 µM |  |  |  |
| CN(c1ncc(Cl)cn1)[C@H]1CCc2c(c3ncccc3n2CC(=O)O)C1 [drawing 32] | 30 | 300 µM |  |  |  |
| CN(c1ncc(Cl)cn1)[C@H]1CCc2c(c3nc(F)ccc3n2CC(=O)O)C1 [drawing 33] | >300 | >300 µM |  |  |  |
| O=C(O)Cn1c2c(c3nc(F)ccc31)C[C@@H](Nc1ncc(Cl)cn1)CC2 [drawing 35] | >300 | >300 µM |  |  |  |
